Patent US6399051B2, “Method and agents for permanently styling hair, with a base consisting of N,N-disubstituted mercaptoacetamides” (priority 1997, dated 2002)

Key:
[1] = 20 min at 50° C., relative to glycerol monothioglycolate solution pH 9 = 100%; for Standardized Wave Stability WSN pH = 7: waving solution pH 7, 87 mmol reducing agent/100 g; for Standardized Wave Stability WSN pH = 8: waving solution pH 8, 87 mmol reducing agent/100 g; for Standardized Wave Stability WSN pH = 9: waving solution pH 9, 87 mmol reducing agent/100 g
[2] = pKa determination (H2O)

| Compound | Standardized Wave Stability WSN pH = 7 [1] [%] | Standardized Wave Stability WSN pH = 8 [1] [%] | Standardized Wave Stability WSN pH = 9 [1] [%] | pKa [2] |
| --- | --- | --- | --- | --- |
| CN(C)C(=O)CS [Mercaptoacetamide 1, N,N-Dimethylmercaptoacetamide] | 81 | 98 | 98 | – |
| CCN(CC)C(=O)CS [Mercaptoacetamide 2, N,N-Diethylmercaptoacetamide] | 83 | 98 | 106 | – |
| CCCCN(C)C(=O)CS [Mercaptoacetamide 3, N-Butyl-N-methylmercaptoacetamide] | 63 | 67 | 87 | 7.873 |
| CCN(CCO)C(=O)CS [Mercaptoacetamide 4, N-Ethyl-N-2′-hydroxyethylmercaptoacetamide] | – | – | – | 7.604 |
| Thiolactic acid [reference compound] | 57 | 50 | 70 | – |
